According to patent publication US10428080B2, “TBK/IKK inhibitor compounds and uses thereof” (Merck Patent GmbH, priority 2015, dated 2019):
Structures can show the parent of a compound that is named as a salt.

Key:
IKKε = target: T1, IKKε (Homo sapiens, UniProt Q14164); assay: IKKe Biochemical Assay; details: read-out: IKKε IC50
T1 sequence (Q14164 1-716): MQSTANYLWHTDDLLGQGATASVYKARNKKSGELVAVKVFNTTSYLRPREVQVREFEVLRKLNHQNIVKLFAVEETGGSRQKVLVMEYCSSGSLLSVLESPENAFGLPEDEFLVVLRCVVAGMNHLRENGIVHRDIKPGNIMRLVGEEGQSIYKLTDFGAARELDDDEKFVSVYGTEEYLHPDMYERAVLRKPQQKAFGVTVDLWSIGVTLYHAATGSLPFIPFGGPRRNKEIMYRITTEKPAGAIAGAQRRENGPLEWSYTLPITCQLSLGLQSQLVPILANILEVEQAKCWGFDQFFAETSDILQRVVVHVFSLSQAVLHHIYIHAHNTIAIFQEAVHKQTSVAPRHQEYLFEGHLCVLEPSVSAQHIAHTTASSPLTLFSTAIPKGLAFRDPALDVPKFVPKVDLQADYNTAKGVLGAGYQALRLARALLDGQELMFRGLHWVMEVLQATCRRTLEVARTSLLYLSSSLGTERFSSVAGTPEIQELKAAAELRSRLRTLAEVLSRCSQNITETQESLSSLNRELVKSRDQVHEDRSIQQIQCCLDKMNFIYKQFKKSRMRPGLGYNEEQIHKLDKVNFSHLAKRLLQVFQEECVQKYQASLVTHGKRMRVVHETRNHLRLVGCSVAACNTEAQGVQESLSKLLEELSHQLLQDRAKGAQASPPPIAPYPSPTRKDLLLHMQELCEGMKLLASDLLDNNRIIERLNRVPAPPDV
In short: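 Activity was measured as mobility-shift separation of phosphorylated from unphosphorylated substrate on a LabChip EZ Reader. Compound was titrated from 30 uM final in 10 points, 1:4 steps, with 1% DMSO, and enzyme plus substrate reacted 90 min at 25° C before stop buffer. Control wells held 10 uM staurosporine.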

[1] = tested on: phosphorylation of the IRF-3 protein in MDA-MB-468 cells; assay: pIRF3 immunocytochemistry cell based assay; details: Homo sapiens; MDA-MB-468 cells, Poly(I:C) stimulation; read-out: pIRF3 IC50
In short: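 After 2 h stimulation with Poly(I:C) (10 ug/ml), following 1 h compound pre-treatment (10-point, 3-fold dilution, top 10 uM), MDA-MB-468 cells were fixed and stained with anti-pIRF3 antibody. pIRF3 fluorescence was normalized to PI staining or cell count on an Acumen cytometer. IC50 curves were derived from this.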

TBK1 = target: T2, TBK1 (Homo sapiens, UniProt Q9UHD2); assay: TBK Biochemical Assay; details: read-out: TBK1 IC50
T2 sequence (Q9UHD2 1-729): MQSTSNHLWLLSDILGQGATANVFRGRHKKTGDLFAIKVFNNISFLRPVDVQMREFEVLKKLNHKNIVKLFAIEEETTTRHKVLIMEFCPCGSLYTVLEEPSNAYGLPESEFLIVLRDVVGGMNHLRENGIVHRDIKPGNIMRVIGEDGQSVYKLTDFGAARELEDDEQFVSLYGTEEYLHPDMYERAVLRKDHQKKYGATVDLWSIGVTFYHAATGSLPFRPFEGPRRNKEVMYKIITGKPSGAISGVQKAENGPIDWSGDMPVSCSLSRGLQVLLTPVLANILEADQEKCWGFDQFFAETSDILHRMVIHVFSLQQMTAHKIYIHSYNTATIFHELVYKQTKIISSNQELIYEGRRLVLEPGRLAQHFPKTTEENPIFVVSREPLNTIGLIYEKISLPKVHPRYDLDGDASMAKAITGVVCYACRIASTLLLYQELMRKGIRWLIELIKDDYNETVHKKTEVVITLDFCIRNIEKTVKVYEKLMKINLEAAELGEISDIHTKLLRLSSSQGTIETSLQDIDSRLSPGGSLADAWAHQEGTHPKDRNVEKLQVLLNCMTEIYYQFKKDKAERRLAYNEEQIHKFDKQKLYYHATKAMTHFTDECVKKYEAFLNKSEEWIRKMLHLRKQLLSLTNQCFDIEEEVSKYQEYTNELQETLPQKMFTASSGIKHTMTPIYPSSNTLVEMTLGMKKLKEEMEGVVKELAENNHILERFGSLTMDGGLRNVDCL
In short: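 Caliper LabChip mobility-shift readout of substrate and product after 90 min of TBK1 reaction at 25° C and stop-buffer addition. Compounds tested in 1:4 serial dilution over 10 points from 30 uM final at 1% DMSO; staurosporine 10 uM final defines full inhibition.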

IC50 (IKKε) [nM] | IC50 [1] [nM] | IC50 (TBK1) [nM] | SMILES
< 100 | < 100 | < 100 | COc1cc(C(=O)N2CC3CCC(C2)O3)ccc1-c1cc2nccc(-c3ccc(OC4CCOCC4)c(C#N)c3)c2o1 [Compound 58, 5-{2-[2-Methoxy-4-(8-oxa-3-aza-bicyclo[3.2.1]octane-3-carbonyl)-phenyl]-furo[3,2-b]pyridin-7-yl}-2-(tetrahydro-pyran-4-yloxy)-benzonitrile]
< 100 | 100 to 1000 | < 100 | COc1cc(C(=O)NCC2(C)COC2)ccc1-c1cc2nccc(-c3ccc(OC4CCOCC4)c(C#N)c3)c2o1 [Compound 59, 4-{7-[3-Cyano-4-(tetrahydro-pyran-4-yloxy)-phenyl]-furo[3,2-b]pyridin-2-yl}-3-methoxy-N-(3-methyl-oxetan-3-ylmethyl)-benzamide]
< 100 | 100 to 1000 | < 100 | COc1cc(C(=O)NC2CCNCC2)ccc1-c1cc2nccc(-c3ccc(OC4CCOCC4)c(C#N)c3)c2o1 [Compound 62, 4-{7-[3-Cyano-4-(tetrahydro-pyran-4-yloxy)-phenyl]-furo[3,2-b]pyridin-2-yl}-3-methoxy-N-piperidin-4-yl-benzamide hydrochloride]
< 100 | < 100 | < 100 | COc1cc(C(=O)NC(C)(C)CN(C)C)ccc1-c1cc2nccc(-c3ccc(OC4CCOCC4)c(C#N)c3)c2o1 [Compound 63, 4-{7-[3-Cyano-4-(tetrahydro-pyran-4-yloxy)-phenyl]-furo[3,2-b]pyridin-2-yl}-N-(2-dimethylamino-1,1-dimethyl-ethyl)-3-methoxy-benzamide]
< 100 | 100 to 1000 | < 100 | COc1cc(C(=O)NC2CCN(C)C2)ccc1-c1cc2nccc(-c3ccc(OC4CCOCC4)c(C#N)c3)c2o1 (stereo not drawn) [Compound 64, 4-{7-[3-Cyano-4-(tetrahydro-pyran-4-yloxy)-phenyl]-furo[3,2-b]pyridin-2-yl}-3-methoxy-N-(1-methyl-pyrrolidin-3-yl)-benzamide]
< 100 | 100 to 1000 | < 100 | COc1cc(C(=O)NC2C3COCC32)ccc1-c1cc2nccc(-c3ccc(OC4CCOCC4)c(C#N)c3)c2o1 (stereo not drawn) [Compound 65, 4-{7-[3-Cyano-4-(tetrahydro-pyran-4-yloxy)-phenyl]-furo[3,2-b]pyridin-2-yl}-3-methoxy-N-(3-oxa-bicyclo[3.1.0]hex-6-yl)-benzamide]
< 100 | 100 to 1000 | < 100 | COc1cc(C(=O)NNC(=O)OC(C)(C)C)ccc1-c1cc2nccc(-c3ccc(OC4CCOCC4)c(C#N)c3)c2o1 [Compound 67, N′-(4-{7-[3-Cyano-4-(tetrahydro-pyran-4-yloxy)-phenyl]-furo[3,2-b]pyridin-2-yl}-3-methoxy-benzoyl)-hydrazinecarboxylic acid tert-butyl ester]
< 100 | 100 to 1000 | < 100 | COc1cc(C(=O)NC2CCC(O)C2)ccc1-c1cc2nccc(-c3ccc(OC4CCOCC4)c(C#N)c3)c2o1 (stereo not drawn) [Compound 68, 4-{7-[3-Cyano-4-(tetrahydro-pyran-4-yloxy)-phenyl]-furo[3,2-b]pyridin-2-yl}-N-(3-hydroxy-cyclopentyl)-3-methoxy-benzamide]
< 100 | 100 to 1000 | < 100 | COc1cc(C(=O)NCC2(F)COC2)ccc1-c1cc2nccc(-c3ccc(OC4CCOCC4)c(C#N)c3)c2o1 [Compound 69, 4-{7-[3-Cyano-4-(tetrahydro-pyran-4-yloxy)-phenyl]-furo[3,2-b]pyridin-2-yl}-N-(3-fluoro-oxetan-3-ylmethyl)-3-methoxy-benzamide]
< 100 | 100 to 1000 | < 100 | COc1cc(C(=O)N2CCC(CO)CC2)ccc1-c1cc2nccc(-c3ccc(N4CC[C@H](F)C4)c(C#N)c3)c2o1 [Compound 70, 2-((S)-3-Fluoro-pyrrolidin-1-yl)-5-{2-[4-(4-hydroxymethyl-piperidine-1-carbonyl)-2-methoxy-phenyl]-furo[3,2-b]pyridin-7-yl}-benzonitrile]
< 100 | < 100 | < 100 | COc1cc(C(=O)N(C)C)ccc1-c1cc2nccc(-c3ccc(OC4CCNCC4(F)F)c(C#N)c3)c2o1 (stereo not drawn) [Compound 71, 4-{7-[3-Cyano-4-(3,3-difluoro-piperidin-4-yloxy)-phenyl]-furo[3,2-b]pyridin-2-yl}-3-methoxy-N,N-dimethyl-benzamide hydrochloride]
< 100 | < 100 | < 100 | COc1cc(C(=O)N2CC3CN(C)CC3C2)ccc1-c1cc2nccc(-c3ccc(NC4CCOCC4)c(C#N)c3)c2o1 (stereo not drawn) [Compound 73, 5-{2-[2-Methoxy-4-(5-methyl-hexahydro-pyrrolo[3,4-c]pyrrole-2-carbonyl)-phenyl]-furo[3,2-b]pyridin-7-yl}-2-(tetrahydro-pyran-4-ylamino)-benzonitrile]
< 100 | 100 to 1000 | < 100 | COc1cc(C(=O)NC2CC(O)C2)ccc1-c1cc2nccc(-c3ccc(OC4CCOCC4)c(C#N)c3)c2o1 (stereo not drawn) [Compound 75, 4-{7-[3-Cyano-4-(tetrahydro-pyran-4-yloxy)-phenyl]-furo[3,2-b]pyridin-2-yl}-N-(3-hydroxy-cyclobutyl)-3-methoxy-benzamide]
< 100 | 100 to 1000 | < 100 | COc1cc(C(=O)N2CCC(CO)C2)ccc1-c1cc2nccc(-c3ccc(N4CC[C@H](F)C4)c(C#N)c3)c2o1 (stereo partly drawn) [Compound 76, 2-((S)-3-Fluoro-pyrrolidin-1-yl)-5-{2-[4-(3-hydroxymethyl-pyrrolidine-1-carbonyl)-2-methoxy-phenyl]-furo[3,2-b]pyridin-7-yl}-benzonitrile]
< 100 | 100 to 1000 | < 100 | COc1cc(C(=O)N2CC(F)(F)C2)ccc1-c1cc2nccc(-c3ccc(OC4CCOCC4)c(C#N)c3)c2o1 [Compound 77, 5-{2-[4-(3,3-Difluoro-azetidine-1-carbonyl)-2-methoxy-phenyl]-furo[3,2-b]pyridin-7-yl}-2-(tetrahydro-pyran-4-yloxy)-benzonitrile]
< 100 | 100 to 1000 | < 100 | COc1cc(C(=O)N(C)C)ccc1-c1cc2nccc(-c3ccc(NC4CCOCC4F)c(C#N)c3)c2o1 (stereo not drawn) [Compound 78]

SMILES | IC50 (IKKε) [nM] | IC50 [1] [nM] | IC50 (TBK1) [nM]
COc1cc(C(=O)NC2CN3CCC2CC3)ccc1-c1cc2nccc(-c3ccc(N4CC[C@H](F)C4)c(C#N)c3)c2o1 (stereo partly drawn) [Compound 72, N-(1-Aza-bicyclo[2.2.2]oct-3-yl)-4-{7-[3-cyano-4-((S)-3-fluoro-pyrrolidin-1-yl)-phenyl]-furo[3,2-b]pyridin-2-yl}-3-methoxy-benzamide] | < 100 | 100 to 1000 | < 100
COc1cc(C(=O)NC2CN3CCC2CC3)ccc1-c1cc2nccc(-c3ccc(OC4CCOCC4)c(C#N)c3)c2o1 (stereo not drawn) [Compound 79, N-(1-Aza-bicyclo[2.2.2]oct-3-yl)-4-{7-[3-cyano-4-(tetrahydro-pyran-4-yloxy)-phenyl]-furo[3,2-b]pyridin-2-yl}-3-methoxy-benzamide] | < 100 | 100 to 1000 | < 100
